Measured values as given in publication PMC12692861, “Biotin-Linked Ursolic Acid Conjugates as Selective Anticancer Agents and Target-Identification Tools for Cancer Therapy” (Molecules, 2025).

How the values were obtained:
[1] = tested on: bladder cancer cell lines 5637, HT-1376, T-24, MB-49; experiment: Cell cycle analysis, statements across the tested cell lines; format: cell-based; conditions: for effect on cell cycle distribution: 12 µM, bladder cancer cell lines
Excerpt: (§1) Cells treated with some antiproliferative drugs are blocked from orderly progression from one stage of their mitotic cycle to the next due to inhibition of a specific stage of the cell cycle. Analysis by flow cytometry (FC) of DNA content in the nuclei of drug-treated cells is a well-established technique for evaluating the fractions of cells in each stage of the cell cycle based on their DNA content. In this study, we employed FC to examine whether treatment with UA or 5c affects the orderly cell cycle progression from G0/G1, S, and G2M before entering Mitosis (M). Figure 6 represents the effect of UA and 5c on cell cycle progression in four bladder cancer cell lines, 5637, HT-1376, T-24, and MB-49, after a […] treatment at a concentration of 12 µM. Following the treatment, nuclei suspensions from treated cells were prepared by direct cell lysis in a hypotonic solution, with simultaneous staining with PI (100 µg/mL). The resulting nuclei suspension and the samples were run on the flow cytometer and analyzed for DNA content.
(§2) Cells cultured in 35 mm diameter, 6-well cluster plates (Corning Inc., Corning, NY, USA) overnight at a density of 0.3 × 10^6 cells/well, and treated with various compounds at selected concentrations for 24 h. After completion of treatment, cells were washed twice with PBS, followed by the addition of Propidium Iodide (PI) containing […] solution [(0.1 mg/mL PI), 50mg Na-citrate, 15 µL of IGEPAL CA-630], 1 mL in each well, and incubated for 30–45 min at 37 °C and 5% CO2. After that data acquired using the NovoCyte Quanteon Flow Cytometer was analyzed using NovoExpress software (version 1.6.1).

[2] = tested on: T24; experiment: Cell cycle phase fractionation by flow cytometry (PI); format: cell-based, human; conditions: T24, 24 h, mean ± SD n=3
Excerpt: as §1, §2

[3] = tested on: HT-1376; experiment: as above; format: cell-based, human; conditions: HT-1376, 24 h, mean ± SD n=3
Excerpt: as §1, §2

[4] = tested on: 5637; experiment: as above; format: cell-based, human; conditions: 5637, 24 h, mean ± SD n=3
Excerpt: as §1, §2

[5] = tested on: 5637 cells; experiment: ROS estimation with H2DCFDA; format: cell-based, human; conditions: 5637, 24 h, especially at concentrations above 20 µM
Protocol: (§3) Since 5c was not toxic to non-tumorigenic cells, such as MCF12A and UROtsa, these cells were excluded from experiments aimed at identifying the broad mechanism of cytotoxicity. A common mechanism by which these antioxidants induce cytotoxicity in tumor cells is by generating Reactive Oxygen Species (ROS) selectively in fast-growing tumor cells. The levels of ROS generated by 5c exposed cells were evaluated with the oxidation of 2′,7′-dichlorodihydrofluorescein diacetate (H2DCFDA). It is a cell-permeant fluorescent probe used for detecting ROS production (Thermo Scientific Inc., Waltham, MA, USA). […] Figure 3 illustrates the quantification of intracellular ROS levels in four bladder cancer cell lines, 5637, T24, HT-1376, and MB49, following treatment with UA and its biotin-conjugated derivative, compound 5c.
(§4) The relative levels of intracellular ROS produced in untreated and drug-treated cells were analyzed by fluorimetry using the fluorescent probe H2DCFDA (Sigma-Aldrich, #D6883, St. Louis, MI, USA), as described previously. Briefly, cells cultured in a 96-well plate at 1 × 10^4 cells per well were treated with drugs of interest for 24 h rinsed with sterile PBS to remove excess drugs, and incubated with 10 μM DCFDA for 30 min at 37 °C and 5% CO2. Following three rinses with PBS, the fluorescence intensity was recorded at excitation: 485/20, emission: 528/20 using a BioTek Synergy HTX Multimode fluorescence plate reader (Agilent Technologies, Inc., Santa Clara, CA, USA), and the data were represented as percentage change compared to the respective untreated control.
(§5) Figure 3 Estimation of oxidative stress: Treatment with UA or 5c increased ROS levels in various bladder cancer cells. ROS levels were estimated at 24 h using DCFDA. The relative fluorescence unit (RFU) was normalized to that observed in untreated cells and expressed as a percent increase. Data are Means ± SD, (n = 4). Relative significance, expressed as p-value are calculated based on one-way ANOVA.

[6] = tested on: HT1376 cells; experiment: ROS estimation with H2DCFDA; format: cell-based, human; conditions: HT1376, 24 h, especially at concentrations above 20 µM
Protocol: as §3, §4, §5

[7] = tested on: HT-1376; experiment: MTT antiproliferative assay; format: cell-based, human; conditions: for IC50: Homo sapiens, HT-1376, MTT, 72 h, read-out: IC50 ± SD, HT-1376; for SI (selectivity index), HT-1376: IC50 UROtsa / IC50 HT-1376
Protocol: The IC50 values indicate that 5c is effective across multiple bladder cancer cell lines (Figure 2 and Table 2).
The antiproliferative activities of various compounds examined in this report were measured using the MTT (3-[4,5-dimethylthiazol-2-yl]-2,5-diphenyl-tetrazolium bromide) reduction assay, as previously described. Briefly, cells were seeded at 2 × 10^3 cells per well in a 96-well plate and cultured overnight. The cells were then treated with different doses (5 µM, 10 µM, 15 µM, 20 µM, 25 µM, 30 µM, 35 µM, 40 µM in DMSO) for 72 h. Viability of the treated cultures was estimated by conversion of MTT to the insoluble formazan after 3h incubation at 37 °C and 5% CO2. The purple-colored formazan crystals were dissolved in DMSO, and absorbance was recorded at wavelengths 570/640 nm using the Bio-Rad Benchmark Plus Microplate Reader. The percent of viable cells was calculated ODtreated cells/ODcontrol cell wells × 100.

| IC50 [7] | SMILES | effect on cell cycle distribution [1] | increase in the G1-phase population compared with untreated control ([1]; across the tested cell lines) | Cell-Cycle Phase-Fractions G1 [2] | Cell-Cycle Phase-Fractions G2/M [2] | Cell-Cycle Phase-Fractions S [2] | Cell-Cycle Phase-Fractions G1 [3] | Cell-Cycle Phase-Fractions G2/M [3] | Cell-Cycle Phase-Fractions S [3] | Cell-Cycle Phase-Fractions G1 [4] | Cell-Cycle Phase-Fractions G2/M [4] | Cell-Cycle Phase-Fractions S [4] | ROS levels [5] | ROS levels [6] | SI (selectivity index), HT-1376 [7] |
| --- | --- | --- | --- | --- | --- | --- | --- | --- | --- | --- | --- | --- | --- | --- | --- |
| 12.7 ± 0.4 µM | CC1CCC2(C(=O)OCCCCOC(=O)CCCCC3SCC4NC(=O)NC43)CCC3(C)C(=CCC4C5(C)CCC(O)C(C)(C)C5CCC43C)C2C1C [Compound 5c, 4-((5-((3aS,4S,6aR)-2-Oxohexahydro-1H-thieno [3,4-d]imidazol-4-yl)pentanoyl)oxy) butyl 3-hydroxy-urs-12-en-28-oate] | G1 phase arrest | 20–30% | 55.10 ± 0.37 % of total | 15.20 ± 0.02 % of total | 29.70 ± 0.39 % of total | 52.11 ± 0.06 % of total | 16.15 ± 0.71 % of total | 31.73 ± 0.65 % of total | 47.78 ± 0.60 % of total | 16.79 ± 0.73 % of total | 35.42 ± 1.33 % of total | higher levels of ROS than UA | higher levels of ROS than UA | 4.96 |
| 21.9 ± 1.14 µM | C[C@H]1[C@H](C)CC[C@]2(C(=O)O)CC[C@]3(C)C(=CC[C@@H]4[C@@]5(C)CC[C@H](O)C(C)(C)[C@@H]5CC[C@]43C)[C@H]12 [UA, Ursolic acid] | more modest shift in phase distribution |  | 57.76 ± 2.60 % of total | 19.95 ± 1.82 % of total | 22.29 ± 0.77 % of total | 52.40 ± 0.56 % of total | 17.17 ± 1.04 % of total | 30.43 ± 0.48 % of total | 43.52 ± 0.88 % of total | 18.59 ± 2.05 % of total | 37.89 ± 1.16 % of total |  |  | 3.06 |
